{
  "source": "patent US20220088016A1",
  "about": "“CANCER TREATMENT USING MULTI-TARGETED KINASE INHIBITOR IN COMBINATION OF PROTEIN KINASE BIOMARKERS” (ZHEJIANG CROWNMAB BIOTECH CO. LTD., priority 2019, published 2022)",
  "experiment_in_all_cases": "Kinase profiling",
  "format_in_all_cases": "binding",
  "details_in_all_cases": "read-out: % Ctrl @ 1000 nM",
  "key": {"ULK1": {"biological_target": "ULK1 (Homo sapiens, UniProt O75385)"}, "WEE1": {"biological_target": "WEE1 (Homo sapiens, UniProt P30291)"}, "[1]": {"biological_target": "JAK1 (JH1domain-catalytic) (Homo sapiens, UniProt P23458)"}, "[2]": {"biological_target": "EGFR (L747-S752del, P753S) (Homo sapiens, UniProt P00533, DEL747-752/P753S)"}, "TNK2": {"biological_target": "TNK2 (Homo sapiens, UniProt Q07912)"}, "PDGFRA": {"biological_target": "PDGFRA (Homo sapiens, UniProt P16234)"}, "PAK1": {"biological_target": "PAK1 (Homo sapiens, UniProt Q13153)"}, "ALK (C1156Y)": {"biological_target": "ALK (C1156Y) (Homo sapiens, UniProt Q9UM73, C1156Y)"}, "CDC2L5": {"biological_target": "CDC2L5 (Homo sapiens, UniProt Q14004)"}, "CAMKK1": {"biological_target": "CAMKK1 (Homo sapiens, UniProt Q8N5S9)"}, "MET (Y1235D)": {"biological_target": "T1, MET (Y1235D) (Homo sapiens, UniProt P08581, Y1235D)", "T1 construct": "T7 phage fusion (stated for most kinases of the panel only); made in house; host or cells: T7 phage in E. coli (BL21-derived) or HEK-293 cells"}, "NEK5": {"biological_target": "T2, NEK5 (Homo sapiens, UniProt Q6P3R8)", "T2 construct": "T7 phage fusion (said for most assays); made in house"}, "CAMK1B": {"biological_target": "CAMK1B (Homo sapiens, UniProt Q6P2M8)"}, "EGFR (L858R)": {"biological_target": "EGFR (L858R) (Homo sapiens, UniProt P00533, L858R)"}, "LYN": {"biological_target": "LYN (Homo sapiens, UniProt P07948)", "sequence (P07948 whole entry)": "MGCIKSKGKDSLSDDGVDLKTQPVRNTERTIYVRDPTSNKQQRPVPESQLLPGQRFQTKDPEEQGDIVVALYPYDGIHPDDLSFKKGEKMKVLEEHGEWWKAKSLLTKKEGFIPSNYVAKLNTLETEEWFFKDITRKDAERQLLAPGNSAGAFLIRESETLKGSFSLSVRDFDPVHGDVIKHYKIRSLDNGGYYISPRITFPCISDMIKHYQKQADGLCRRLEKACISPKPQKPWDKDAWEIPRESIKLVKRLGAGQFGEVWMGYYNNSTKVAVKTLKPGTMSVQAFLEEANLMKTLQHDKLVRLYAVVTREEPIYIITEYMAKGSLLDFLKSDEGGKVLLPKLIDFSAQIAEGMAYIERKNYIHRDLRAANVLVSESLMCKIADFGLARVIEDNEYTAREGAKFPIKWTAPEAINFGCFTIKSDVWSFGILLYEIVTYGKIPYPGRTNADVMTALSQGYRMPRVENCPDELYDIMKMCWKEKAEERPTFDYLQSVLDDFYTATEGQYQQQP"}, "PRP4": {"biological_target": "PRP4 (Homo sapiens, UniProt Q13523)", "sequence (Q13523 whole entry)": "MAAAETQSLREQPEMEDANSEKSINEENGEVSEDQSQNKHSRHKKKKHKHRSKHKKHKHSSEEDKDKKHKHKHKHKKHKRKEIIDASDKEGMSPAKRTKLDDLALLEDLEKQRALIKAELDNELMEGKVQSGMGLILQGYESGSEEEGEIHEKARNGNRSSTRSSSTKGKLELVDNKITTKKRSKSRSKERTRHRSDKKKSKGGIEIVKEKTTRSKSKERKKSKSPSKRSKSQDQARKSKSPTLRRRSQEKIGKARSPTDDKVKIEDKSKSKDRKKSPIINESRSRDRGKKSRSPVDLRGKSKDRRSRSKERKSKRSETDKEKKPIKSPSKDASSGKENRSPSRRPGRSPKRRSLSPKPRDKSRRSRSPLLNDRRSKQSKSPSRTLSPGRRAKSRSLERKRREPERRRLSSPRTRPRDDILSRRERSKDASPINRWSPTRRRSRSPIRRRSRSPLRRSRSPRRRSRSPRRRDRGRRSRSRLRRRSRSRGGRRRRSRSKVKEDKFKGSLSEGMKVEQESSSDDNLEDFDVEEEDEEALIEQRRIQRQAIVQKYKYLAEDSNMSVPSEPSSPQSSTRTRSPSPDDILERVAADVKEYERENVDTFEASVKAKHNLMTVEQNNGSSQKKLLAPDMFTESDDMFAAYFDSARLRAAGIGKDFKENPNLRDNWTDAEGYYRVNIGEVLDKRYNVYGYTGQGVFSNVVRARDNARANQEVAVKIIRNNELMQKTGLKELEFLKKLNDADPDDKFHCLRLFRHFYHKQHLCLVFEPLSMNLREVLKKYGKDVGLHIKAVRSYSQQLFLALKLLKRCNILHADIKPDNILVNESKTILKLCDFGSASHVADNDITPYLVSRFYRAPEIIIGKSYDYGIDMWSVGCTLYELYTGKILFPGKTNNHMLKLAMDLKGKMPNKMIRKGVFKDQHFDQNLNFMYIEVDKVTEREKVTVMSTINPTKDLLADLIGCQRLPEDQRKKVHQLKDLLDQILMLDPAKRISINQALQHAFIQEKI"}, "GSK3A": {"biological_target": "GSK3A (Homo sapiens, UniProt P49840)"}, "[3]": {"biological_target": "TYK2 (JH1domain-catalytic) (Homo sapiens, UniProt P29597)", "sequence (P29597 897-1176 limits assumed)": "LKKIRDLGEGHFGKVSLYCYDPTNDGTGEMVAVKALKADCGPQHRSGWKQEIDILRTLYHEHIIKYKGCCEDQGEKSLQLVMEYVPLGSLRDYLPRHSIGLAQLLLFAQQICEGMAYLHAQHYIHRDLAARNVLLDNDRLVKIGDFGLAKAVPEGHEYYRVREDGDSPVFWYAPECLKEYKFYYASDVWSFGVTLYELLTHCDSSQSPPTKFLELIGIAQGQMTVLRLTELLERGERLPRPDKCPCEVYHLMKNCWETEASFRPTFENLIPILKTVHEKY"}, "MLCK": {"biological_target": "T3, MLCK (Homo sapiens, UniProt Q32MK0)", "T3 construct": "T7 phage fusion (stated for most kinases of the panel only); made in house; host or cells: T7 phage in E. coli (BL21-derived) or HEK-293 cells"}, "MLK1": {"biological_target": "T4, MLK1 (Homo sapiens, UniProt P80192)", "T4 construct": "T7 phage fusion (stated for most kinases of the panel only); made in house; host or cells: T7 phage in E. coli (BL21-derived) or HEK-293 cells"}, "LATS2": {"biological_target": "LATS2 (Homo sapiens, UniProt Q9NRM7)"}, "FLT1": {"biological_target": "FLT1 (Homo sapiens, UniProt P17948)"}, "INSR": {"biological_target": "INSR (Homo sapiens, UniProt P06213)", "sequence (P06213 28-1382)": "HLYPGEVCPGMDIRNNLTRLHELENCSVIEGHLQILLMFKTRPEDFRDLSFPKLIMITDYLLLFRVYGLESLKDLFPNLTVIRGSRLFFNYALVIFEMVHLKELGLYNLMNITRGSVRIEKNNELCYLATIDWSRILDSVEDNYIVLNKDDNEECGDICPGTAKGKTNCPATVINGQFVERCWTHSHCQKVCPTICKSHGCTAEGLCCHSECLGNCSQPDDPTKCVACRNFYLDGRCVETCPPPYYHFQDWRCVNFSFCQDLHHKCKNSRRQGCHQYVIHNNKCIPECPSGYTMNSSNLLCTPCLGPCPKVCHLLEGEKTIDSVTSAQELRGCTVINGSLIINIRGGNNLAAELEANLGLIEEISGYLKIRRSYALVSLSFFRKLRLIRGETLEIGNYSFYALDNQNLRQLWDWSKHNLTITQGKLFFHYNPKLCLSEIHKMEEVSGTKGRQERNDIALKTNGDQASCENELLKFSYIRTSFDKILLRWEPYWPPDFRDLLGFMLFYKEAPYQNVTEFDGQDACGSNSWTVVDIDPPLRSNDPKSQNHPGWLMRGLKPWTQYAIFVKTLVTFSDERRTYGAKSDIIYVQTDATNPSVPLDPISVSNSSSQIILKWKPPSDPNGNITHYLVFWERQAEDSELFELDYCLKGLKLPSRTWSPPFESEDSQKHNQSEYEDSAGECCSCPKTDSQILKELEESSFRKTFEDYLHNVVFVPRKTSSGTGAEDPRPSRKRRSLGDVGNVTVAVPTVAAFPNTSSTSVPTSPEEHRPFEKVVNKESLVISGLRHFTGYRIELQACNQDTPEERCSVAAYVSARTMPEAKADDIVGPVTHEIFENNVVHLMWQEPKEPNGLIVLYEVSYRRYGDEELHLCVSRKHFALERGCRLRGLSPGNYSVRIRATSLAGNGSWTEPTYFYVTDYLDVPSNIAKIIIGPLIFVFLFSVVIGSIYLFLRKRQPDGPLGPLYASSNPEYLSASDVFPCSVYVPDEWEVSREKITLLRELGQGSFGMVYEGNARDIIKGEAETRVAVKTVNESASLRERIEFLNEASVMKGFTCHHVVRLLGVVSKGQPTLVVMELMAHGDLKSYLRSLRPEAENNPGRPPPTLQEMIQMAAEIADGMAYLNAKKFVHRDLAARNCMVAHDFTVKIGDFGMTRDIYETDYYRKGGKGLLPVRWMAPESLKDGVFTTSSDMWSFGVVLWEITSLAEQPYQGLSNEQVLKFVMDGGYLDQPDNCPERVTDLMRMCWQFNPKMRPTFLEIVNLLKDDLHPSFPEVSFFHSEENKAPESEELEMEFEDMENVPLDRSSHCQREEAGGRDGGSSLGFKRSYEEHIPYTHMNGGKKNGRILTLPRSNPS"}, "MST1": {"biological_target": "T5, MST1 (Homo sapiens, UniProt Q13043)", "T5 construct": "T7 phage fusion (stated for most kinases of the panel only); made in house; host or cells: T7 phage in E. coli (BL21-derived) or HEK-293 cells"}, "CAMK2B": {"biological_target": "CAMK2B (Homo sapiens, UniProt Q13554)", "sequence (Q13554 whole entry)": "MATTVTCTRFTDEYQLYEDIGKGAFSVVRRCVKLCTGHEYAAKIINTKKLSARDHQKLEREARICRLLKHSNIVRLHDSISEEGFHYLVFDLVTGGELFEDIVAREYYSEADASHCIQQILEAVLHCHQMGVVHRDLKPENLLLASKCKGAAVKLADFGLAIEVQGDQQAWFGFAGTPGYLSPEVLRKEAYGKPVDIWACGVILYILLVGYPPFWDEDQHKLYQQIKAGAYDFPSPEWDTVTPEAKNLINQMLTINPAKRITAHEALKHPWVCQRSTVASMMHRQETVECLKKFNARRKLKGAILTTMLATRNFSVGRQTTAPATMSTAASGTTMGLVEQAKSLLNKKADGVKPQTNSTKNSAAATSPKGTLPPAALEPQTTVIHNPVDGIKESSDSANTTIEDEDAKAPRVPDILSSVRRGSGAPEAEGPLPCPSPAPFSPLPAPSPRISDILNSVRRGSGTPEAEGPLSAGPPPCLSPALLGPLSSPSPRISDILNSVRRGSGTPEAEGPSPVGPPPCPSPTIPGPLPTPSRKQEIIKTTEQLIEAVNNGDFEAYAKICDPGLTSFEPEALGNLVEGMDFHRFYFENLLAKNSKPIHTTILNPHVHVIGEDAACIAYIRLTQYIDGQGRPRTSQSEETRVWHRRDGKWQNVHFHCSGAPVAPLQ"}, "CDKL3": {"biological_target": "CDKL3 (Homo sapiens, UniProt Q8IVW4)"}, "CLK1": {"biological_target": "CLK1 (Homo sapiens, UniProt P49759)", "sequence (P49759 whole entry)": "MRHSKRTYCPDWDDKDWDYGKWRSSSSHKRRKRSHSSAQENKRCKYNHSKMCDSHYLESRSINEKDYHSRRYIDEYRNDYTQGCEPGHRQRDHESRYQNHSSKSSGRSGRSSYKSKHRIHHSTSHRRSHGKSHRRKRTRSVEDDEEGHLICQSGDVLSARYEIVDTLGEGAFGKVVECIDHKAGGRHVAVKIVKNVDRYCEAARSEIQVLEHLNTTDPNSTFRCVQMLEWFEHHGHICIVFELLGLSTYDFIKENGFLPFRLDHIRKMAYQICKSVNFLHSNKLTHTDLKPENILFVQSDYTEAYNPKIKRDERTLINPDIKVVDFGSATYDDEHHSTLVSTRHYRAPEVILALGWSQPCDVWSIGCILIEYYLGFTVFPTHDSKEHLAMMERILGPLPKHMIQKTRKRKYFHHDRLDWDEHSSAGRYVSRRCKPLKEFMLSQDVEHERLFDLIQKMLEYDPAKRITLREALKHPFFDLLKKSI"}, "PHKG1": {"biological_target": "PHKG1 (Homo sapiens, UniProt Q16816)", "sequence (Q16816 whole entry)": "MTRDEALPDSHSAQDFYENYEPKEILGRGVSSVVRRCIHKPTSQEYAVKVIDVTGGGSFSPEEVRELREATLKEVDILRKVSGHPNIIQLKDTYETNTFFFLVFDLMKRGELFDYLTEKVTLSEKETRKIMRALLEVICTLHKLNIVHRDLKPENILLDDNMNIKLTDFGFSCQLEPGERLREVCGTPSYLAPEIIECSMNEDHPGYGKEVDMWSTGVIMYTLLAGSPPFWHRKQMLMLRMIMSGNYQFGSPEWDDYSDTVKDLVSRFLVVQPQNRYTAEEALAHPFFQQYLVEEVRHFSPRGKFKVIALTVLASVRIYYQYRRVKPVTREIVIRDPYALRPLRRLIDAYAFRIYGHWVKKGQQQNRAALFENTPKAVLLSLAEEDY"}, "PYK2": {"biological_target": "PYK2 (Homo sapiens, UniProt Q14289)"}, "MYLK4": {"biological_target": "T6, MYLK4 (Homo sapiens, UniProt Q86YV6)", "T6 construct": "T7 phage fusion (said for most assays); made in house"}, "[4]": {"biological_target": "RPS6KA4 (Kin.Dom.1-N-terminal) (Homo sapiens, UniProt O75676)", "sequence (O75676 33-301 limits assumed)": "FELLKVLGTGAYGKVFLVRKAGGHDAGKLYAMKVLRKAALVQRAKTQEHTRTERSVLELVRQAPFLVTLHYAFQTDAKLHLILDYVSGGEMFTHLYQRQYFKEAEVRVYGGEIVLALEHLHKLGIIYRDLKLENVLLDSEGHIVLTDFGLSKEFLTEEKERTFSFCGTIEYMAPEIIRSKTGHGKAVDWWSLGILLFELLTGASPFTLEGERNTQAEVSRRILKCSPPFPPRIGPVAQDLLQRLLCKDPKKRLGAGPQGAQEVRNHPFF"}, "RET": {"biological_target": "RET (Homo sapiens, UniProt P07949)"}, "DAPK3": {"biological_target": "DAPK3 (Homo sapiens, UniProt O43293)"}, "MAP3K3": {"biological_target": "MAP3K3 (Homo sapiens, UniProt Q99759)"}, "FLT3 (D835H)": {"biological_target": "FLT3 (D835H) (Homo sapiens, UniProt P36888, D835H)"}, "CDK5": {"biological_target": "CDK5 (Homo sapiens, UniProt Q00535)"}, "EPHA6": {"biological_target": "EPHA6 (Homo sapiens, UniProt Q9UF33)"}, "FLT3 (R834Q)": {"biological_target": "FLT3 (R834Q) (Homo sapiens, UniProt P36888, R834Q)"}, "EPHA3": {"biological_target": "EPHA3 (Homo sapiens, UniProt P29320)"}},
  "data": [
    {"smiles": "Cc1cc(Oc2cc(NC(=O)C3CC3)ncn2)ccc1NC(=O)Nc1ccc(Cl)c(C(F)(F)F)c1", "note": "[CBT-102]", "values": [
      {"measurement": "remaining activity at 1 µM", "setting": "ULK1", "result": 98, "unit": "%"},
      {"measurement": "remaining activity at 1 µM", "setting": "WEE1", "result": 92, "unit": "%"},
      {"measurement": "remaining activity at 1 µM", "setting": "[1]", "result": 78, "unit": "%"},
      {"measurement": "remaining activity at 1 µM", "setting": "[2]", "result": 85, "unit": "%"},
      {"measurement": "remaining activity at 1 µM", "setting": "TNK2", "result": 93, "unit": "%"},
      {"measurement": "remaining activity at 1 µM", "setting": "PDGFRA", "result": 2.1, "unit": "%"},
      {"measurement": "remaining activity at 1 µM", "setting": "PAK1", "result": 100, "unit": "%"},
      {"measurement": "remaining activity at 1 µM", "setting": "ALK (C1156Y)", "result": 97, "unit": "%"},
      {"measurement": "remaining activity at 1 µM", "setting": "CDC2L5", "result": 73, "unit": "%"},
      {"measurement": "remaining activity at 1 µM", "setting": "CAMKK1", "result": 88, "unit": "%"},
      {"measurement": "remaining activity at 1 µM", "setting": "MET (Y1235D)", "result": 79, "unit": "%"},
      {"measurement": "remaining activity at 1 µM", "setting": "NEK5", "result": 96, "unit": "%"},
      {"measurement": "remaining activity at 1 µM", "setting": "CAMK1B", "result": 98, "unit": "%"},
      {"measurement": "remaining activity at 1 µM", "setting": "EGFR (L858R)", "result": 87, "unit": "%"},
      {"measurement": "remaining activity at 1 µM", "setting": "LYN", "result": 20, "unit": "%"},
      {"measurement": "remaining activity at 1 µM", "setting": "PRP4", "result": 95, "unit": "%"},
      {"measurement": "remaining activity at 1 µM", "setting": "GSK3A", "result": 18, "unit": "%"},
      {"measurement": "remaining activity at 1 µM", "setting": "[3]", "result": 5.6, "unit": "%"},
      {"measurement": "remaining activity at 1 µM", "setting": "MLCK", "result": 100, "unit": "%"},
      {"measurement": "remaining activity at 1 µM", "setting": "MLK1", "result": 94, "unit": "%"},
      {"measurement": "remaining activity at 1 µM", "setting": "LATS2", "result": 100, "unit": "%"},
      {"measurement": "remaining activity at 1 µM", "setting": "FLT1", "result": 0.8, "unit": "%"},
      {"measurement": "remaining activity at 1 µM", "setting": "INSR", "result": 100, "unit": "%"},
      {"measurement": "remaining activity at 1 µM", "setting": "MST1", "result": 100, "unit": "%"},
      {"measurement": "remaining activity at 1 µM", "setting": "CAMK2B", "result": 97, "unit": "%"},
      {"measurement": "remaining activity at 1 µM", "setting": "CDKL3", "result": 4.3, "unit": "%"},
      {"measurement": "remaining activity at 1 µM", "setting": "CLK1", "result": 98, "unit": "%"},
      {"measurement": "remaining activity at 1 µM", "setting": "PHKG1", "result": 96, "unit": "%"},
      {"measurement": "remaining activity at 1 µM", "setting": "PYK2", "result": 93, "unit": "%"},
      {"measurement": "remaining activity at 1 µM", "setting": "MYLK4", "result": 100, "unit": "%"},
      {"measurement": "remaining activity at 1 µM", "setting": "[4]", "result": 100, "unit": "%"},
      {"measurement": "remaining activity at 1 µM", "setting": "RET", "result": 0, "unit": "%"},
      {"measurement": "remaining activity at 1 µM", "setting": "DAPK3", "result": 96, "unit": "%"},
      {"measurement": "remaining activity at 1 µM", "setting": "MAP3K3", "result": 95, "unit": "%"},
      {"measurement": "remaining activity at 1 µM", "setting": "FLT3 (D835H)", "result": 42, "unit": "%"},
      {"measurement": "remaining activity at 1 µM", "setting": "CDK5", "result": 92, "unit": "%"},
      {"measurement": "remaining activity at 1 µM", "setting": "EPHA6", "result": 2.7, "unit": "%"},
      {"measurement": "remaining activity at 1 µM", "setting": "FLT3 (R834Q)", "result": 97, "unit": "%"},
      {"measurement": "remaining activity at 1 µM", "setting": "EPHA3", "result": 33, "unit": "%"}
    ]}
  ]
}
